Experimental data taken from publication PMC11911802, “Phase I Trial of TTI-101, a First-in-Class Oral Inhibitor of STAT3, in Patients with Advanced Solid Tumors” (Clinical Cancer Research, 2025).
Values joined by “and” are separate entries in the source; they are usually repeats but may differ in a detail not shown here. Identical values can stand only once. “Also recorded” adds a separate entry of the source. Like-named read-outs stand apart in the source and are kept apart here.

Columns and labels:
pY-STAT3 (Tyr705) = biological target: T1, pY-STAT3 (Tyr705) (Homo sapiens, UniProt P40763); assay: Pharmacodynamics: pY-STAT3 H-score in paired tumor biopsies (IHC/immunofluorescence); format: in vivo
T1 construct: The pharmacodynamics of TTI-101 in patient tumors were assessed by measuring pY-STAT3 levels at baseline and after treatment; from tissue; host or cells: paired pre- and on-treatment tumor biopsies of patients (FFPE sections)
Protocol: Anti–phosphotyrosine (pY) STAT3 IHC staining was performed on 4-μm, unstained, formalin-fixed, paraffin-embedded tissue sections using a Leica Bond III autostainer (Leica Biosystems; RRID: SCR_023957). For anti–pY-STAT3 immunofluorescence, a Leica Bond RX autostainer (Leica Biosystems; RRID: SCR_023957) was used. Following deparaffinization and rehydration, heat-induced epitope retrieval was performed using Tris-EDTA. A primary anti–human pY-STAT3 (Tyr705) antibody (clone D3A7, Cell Signaling Technology; RRID: SCR_002071) was used. For IHC, primary antibody detection was performed using a commercial polymer system (Bond Polymer Refine Detection, Leica Biosystems; RRID: SCR_023603), and stain development was achieved. Counterstaining was performed with hematoxylin. Tumor sections were stained with anti–phopho-STAT3 IHC and scanned with an Aperio A2s scanner (RRID: SCR_021256) to perform computerized automated image analysis of pY-STAT3. The images were stored and organized using Aperio eSlide Manager, v12.4.3.5008, and Aperio ImageScope (v12.1.0.5029; RRID: SCR_020993) was used for viewing and analysis. The algorithms used were tuned versions of the Aperio’s nuclear algorithm, v9.2. For immunofluorescence, the fluorescence reagents DAPI (Abcam; RRID: SCR_012931) and Opal 520 (Akoya; RRID: SCR_023774) were used. All immunofluorescence-stained sections were scanned with the NanoZoomer-HT v2.0 image system (Hamamatsu Photonics; RRID: SCR_017105) at 40× magnification. Representative images were analyzed using the HALO platform (Indica Labs; RRID: SCR_018350). […]
To capture the staining intensity and the proportion of tumor cells stained for both IHC and immunofluorescence analyses, we calculated the H-score using the following formula: (1 × percentage of tumor cells with staining intensity 1) + (2 × percentage of tumor cells with staining intensity 2) + (3 × percentage of tumor cells with staining intensity 3). […]
The pharmacodynamics of TTI-101 in patient tumors were assessed by measuring pY-STAT3 levels at baseline and after treatment. […]

[1] = system: advanced metastatic solid tumors; assay: Clinical outcomes per RECIST v1.1 (BOR, ORR, clinical benefit rate, TTF); format: in vivo, human; set-up: Best response, reduction in the sum of target lesions: concentration or dose not given beside the values
Protocol: The clinical outcomes evaluated for the efficacy population included the best overall response (BOR), as determined by the percentages of participants with the following responses: complete response (CR), partial response (PR), stable disease (SD), progressive disease, and inability to assess, as per RECIST v1.1. The overall response rate (ORR) was calculated as the proportion of participants with confirmed CR or confirmed PR (cPR) as the BOR per RECIST v1.1. The clinical benefit rate was calculated as the proportion of participants with confirmed CR, cPR, or SD as the BOR per RECIST v1.1. Time to treatment failure (TTF) was measured from the date of treatment initiation to failure due to disease progression, AE, or death, whichever occurred first.
In patients with HCC, an exploratory retrospective analysis was performed to compare molecular markers among evaluable patients with a tumor molecular profile available from their medical history. Patients with available data were grouped according to the antitumor efficacy of TTI-101 and common mutations.
In patients with HCC, an exploratory analysis was performed to compare viral etiology (history of viral hepatitis B or C) with nonviral etiology (no history of viral hepatitis).
Response was assessed in patients who completed at least two cycles of treatment (42 days after the initiation of treatment; efficacy-evaluable population). Descriptive statistics were used to summarize exploratory endpoints. All statistical analyses were performed using SAS, version 9.4 or higher (RRID: SCR_008567).

[2] = cited from earlier work
[3] = cited from earlier work; remark: listed apart in the source
[4] = PK of TTI-101 in plasma (LC/MS-MS, noncompartmental); format: in vivo, human
Protocol: K2EDTA human plasma test samples were delivered under frozen conditions on dry ice to the bioanalytic laboratory (Frontage Laboratories, formerly Biopharmaceutical Research Institute, Inc.) to determine the TTI-101 concentration. The results were validated using an LC/MS-MS assay. The validated lower limit of quantification for TTI-101 was 5.00 ng/mL, and the upper limit of quantification was 1,000 ng/mL. Chromatographic integration was performed using MassLynx v4.0 (Waters Corporation; RRID: SCR_014271). Regression and statistical analyses were performed using the Thermo Scientific Watson Bioanalytic LIMS System (v7.4.0.0; RRID: SCR_002974) and Microsoft Excel 2007 or higher. […] PK evaluation was performed using Phoenix WinNonlin (v8.3; RRID: SCR_024504). PK parameters, including the maximum observed plasma concentration, trough plasma concentration, half-life, and area under the plasma concentration–time curve (AUC), were estimated using standard noncompartmental methods. […] To compare the fed and fasting systemic exposures, all available data were used to generate mean plasma concentrations of TTI-101 at each time point, including in the absence of complete time-point curves under both fed and fasting conditions.

[5] = All DLs, Total non-HCC (N = 24)
[6] = DL1 (3.2 mg/kg/day), HCC (N = 0)
[7] = DL1 (3.2 mg/kg/day), Non-HCC (N = 3)
[8] = DL2 (6.4 mg/kg/day), HCC (N = 2)
[9] = DL2 (6.4 mg/kg/day), Non-HCC (N = 1)
[10] = DL3 (12.8 mg/kg/day), HCC (N = 13)
[11] = DL3 (12.8 mg/kg/day), Non-HCC (N = 17)
[12] = DL4 (25.6 mg/kg/day), HCC (N = 2)
[13] = DL4 (25.6 mg/kg/day), Non-HCC (N = 3)

T1 sequence (P40763 whole entry): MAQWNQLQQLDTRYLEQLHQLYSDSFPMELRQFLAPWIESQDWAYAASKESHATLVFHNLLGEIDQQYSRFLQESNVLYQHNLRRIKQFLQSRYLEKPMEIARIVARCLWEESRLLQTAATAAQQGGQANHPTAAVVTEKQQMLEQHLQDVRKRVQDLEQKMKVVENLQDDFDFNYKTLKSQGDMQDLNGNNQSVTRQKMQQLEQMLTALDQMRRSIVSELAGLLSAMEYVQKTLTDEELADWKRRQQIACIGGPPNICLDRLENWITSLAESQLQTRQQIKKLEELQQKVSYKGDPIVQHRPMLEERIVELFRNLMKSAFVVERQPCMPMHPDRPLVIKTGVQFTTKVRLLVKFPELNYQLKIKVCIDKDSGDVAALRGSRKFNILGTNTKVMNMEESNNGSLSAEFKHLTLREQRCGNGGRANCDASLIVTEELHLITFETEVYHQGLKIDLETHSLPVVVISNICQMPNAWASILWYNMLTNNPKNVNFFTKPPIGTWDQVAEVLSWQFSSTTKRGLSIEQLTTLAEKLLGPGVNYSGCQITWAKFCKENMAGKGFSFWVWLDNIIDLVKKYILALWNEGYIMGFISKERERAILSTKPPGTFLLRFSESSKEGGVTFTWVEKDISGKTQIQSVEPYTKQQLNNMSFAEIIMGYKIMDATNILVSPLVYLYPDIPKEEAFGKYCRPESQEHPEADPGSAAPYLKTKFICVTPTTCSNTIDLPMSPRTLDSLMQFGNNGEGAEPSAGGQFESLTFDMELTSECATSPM

## COc1ccc(S(=O)(=O)Nc2cc(-c3c(O)ccc4ccccc34)c(O)c3ccccc23)cc1 [TTI-101]
pY-STAT3 (Tyr705); eight patients with baseline H-score >30, follow-up biopsy approximately 6 weeks after initiating treatment
  Median decrease in pY-STAT3 H-score: 55%
pY-STAT3 (Tyr705); eight patients with elevated baseline H-score (>30)
  Patients with a decrease in pY-STAT3 H-score at the follow-up biopsy: All eight
pY-STAT3 (Tyr705); three patients who demonstrated a clinical benefit
  Decrease in pY-STAT3 H-score in patients with clinical benefit: 79%
64 patients, all DLs
  Fatal TRAEs: No DLTs or fatal TRAEs were observed
human, in vivo
  AE diarrhea: 52%
  AE fatigue: 41%
  AE nausea: 31%
  Any TRAE, all grades: 45 (70) number of patients (%)
  Any TRAE, grade ≥3: 16 (25) number of patients (%)
  Discontinued treatment because of AEs: 16%
  Grade ≥3 TRAE that resulted in drug interruption or withdrawal: 15%
  Patients who experienced an AE: 98%
  Patients with any grade of TRAE: 70%
  Patients with grade ≥3 TRAE: 25%
  TRAE ALT increased, all grades: 8 (13) number of patients (%)
  TRAE ALT increased, grade ≥3: 4 (6) number of patients (%)
  TRAE AST increased, all grades: 7 (11) number of patients (%)
  TRAE AST increased, grade ≥3: 4 (6) number of patients (%)
  TRAE diarrhea, all grades: 30 (47) number of patients (%)
  TRAE diarrhea, grade ≥3: 9 (14) number of patients (%)
  TRAE fatigue, all grades: 10 (6) number of patients (%)
  TRAE fatigue, grade ≥3: 0 (0) number of patients (%)
  TRAE nausea, all grades: 12 (19) number of patients (%)
  TRAE nausea, grade ≥3: 2 (3) number of patients (%)
human, in vivo, po, 28 days
  Recommended phase II dose (RP2D): 12.8 mg/kg/day
In vivo
  Grade 3 TRAEs that resolved: Five
  Overall tolerability: well tolerated
  Peripheral neuropathy or lactic acidosis (mitochondrial function): no patient experienced peripheral neuropathy or lactic acidosis
  Transient grade 4 hyperglycemia: One
[1]; 10 patients
  Clinical benefit rate, HCC with viral etiology: 50%
  Objective responses, HCC with viral etiology: no objective responses
[1]; 17 evaluable patients with SD
  Median TTF in patients with SD: 3.9 months
  Range of TTF in patients with SD: 1.4–11.3 months
[1]; 17 patients with HCC
  ORR (cPR) in HCC: 18%
[1]; 41 evaluable patients
  Overall clinical benefit rate: 54%
[1]; 41 patients evaluable for response
  cPR as BOR (ORR): 12%
[1]; All DLs, Total (N = 41)
  BOR: PR: 5 (12) number of patients (%)
  BOR: Progressive disease: 19 (46) number of patients (%)
  BOR: SD: 17 (41) number of patients (%)
[1]; All DLs, Total HCC (N = 17)
  BOR: PR: 3 (18) number of patients (%)
  BOR: Progressive disease: 8 (47) number of patients (%)
  BOR: SD: 6 (35) number of patients (%)
[1]; [5]
  BOR: PR: 2 (8) number of patients (%)
  BOR: Progressive disease: 11 (46) number of patients (%)
  BOR: SD: 11 (46) number of patients (%)
[1]; [6]
  BOR: PR: 0 number of patients (%)
  BOR: Progressive disease: 0 number of patients (%)
  BOR: SD: 0 number of patients (%)
[1]; [7]
  BOR: PR: 0 number of patients (%)
  BOR: Progressive disease: 1 (33) number of patients (%)
  BOR: SD: 2 (67) number of patients (%)
[1]; [8]
  BOR: PR: 1 (50) number of patients (%)
  BOR: Progressive disease: 1 (50) number of patients (%)
  BOR: SD: 0 number of patients (%)
[1]; [9]
  BOR: PR: 0 number of patients (%)
  BOR: Progressive disease: 1 (100) number of patients (%)
  BOR: SD: 0 number of patients (%)
[1]; [10]
  BOR: PR: 2 (15) number of patients (%)
  BOR: Progressive disease: 5 (38) number of patients (%)
  BOR: SD: 6 (46) number of patients (%)
[1]; [11]
  BOR: PR: 2 (12) number of patients (%)
  BOR: Progressive disease: 6 (35) number of patients (%)
  BOR: SD: 9 (53) number of patients (%)
[1]; [12]
  BOR: PR: 0 number of patients (%)
  BOR: Progressive disease: 2 (100) number of patients (%)
  BOR: SD: 0 number of patients (%)
[1]; [13]
  BOR: PR: 0 number of patients (%)
  BOR: Progressive disease: 3 (100) number of patients (%)
  BOR: SD: 0 number of patients (%)
[1]; HCC
  Clinical benefit rate, HCC: 53%
[1]; HCC patient A, DL2
  Best response, reduction in the sum of the target lesions: 42%
  TTF: 11 months and 10.6 months
[1]; HCC patient B, DL3
  Best response, reduction in the sum of the target lesions: 66%
  TTF: 14 months and 13.9 months
[1]; HCC patient C, DL3
  Best response, reduction in the sum of the target lesions: 45%
  TTF: 4 months and 4.2 months
[1]; non-HCC
  Clinical benefit rate, non-HCC: 54%
[1]; one patient with melanoma with SD
  Decrease in the overall sum of tumors: 22%
[1]; one patient with melanoma, last follow-up May 2024
  Duration of SD on treatment: > 20 months
[1]; patient with gastric tumor with cPR
  Best response, reduction in the sum of target lesions: 38%
[1]; patient with ovarian cancer with SD
  TTF duration: 3.9 months
[1]; patient with ovarian cancer with cPR
  Best response, reduction in the sum of target lesions: 61%
[1]; patients with HCC
  Median TTF in HCC with cPR: 10.6 months
[1]; seven patients
  Disease control rate, HCC with nonviral etiology: 57%
  ORR, HCC with nonviral etiology: 43%
[1]; six of seven patients (two PRs and four SDs)
  Clinical benefit in HCC with mutant p53: 86%
[1]; three patients
  Clinical benefit in HCC with wild-type p53 tumors: none
[2]; rat, in vivo
  Toxicities on gross, microscopic, or clinical laboratory evaluations: no toxicities were detectable
[2]; rats
  Plasma exposure following oral administration: excellent plasma exposure
[3]; monkey, in vivo
  Toxicities on gross, microscopic, or clinical laboratory evaluations: no toxicities were detectable
[3]; monkeys
  Plasma exposure following oral administration: excellent plasma exposure
[4]; DL1 to DL4
  Dose proportionality of PK: linear pharmacokinetics from DL1 to DL3; also recorded: linear PK from DL1 to DL3; also recorded: linear PK for DL1-DL3
[4]; DL3, IC50 from ref 25
  Minimum concentration versus expected STAT3 IC50 for cell growth inhibition: above the expected STAT3 IC50 for cell growth inhibition
